Reference: the supplement of paper PMC11061612

How the values were obtained:
Experiment in all cases: Bliss excess, mean over the matrix (fraction); higher = more synergy
[1] = system: AM-38 (Glioblastoma)
Outline: (§1)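 Cell lines in DMEM/F12 or RPMI with 10% FBS were plated in 1536-well plates, held 24 hours at 37°C, 5% CO2, then given two-drug dose matrices for 72 hours (DMSO typically 0.2%). Viability was read by CellTiter-Glo 2.0 luminescence and scaled as inhibition from 0 (vehicle wells) to 1 (blank wells). Combination Emax is the second-highest inhibition in the matrix; Bliss excess is observed combination effect minus expected EA + EB − EA·EB, EA and EB being single-agent effects.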

[2] = system: BxPC-3 (Pancreatic Carcinoma)
Outline: as §1

[3] = system: GAK (Melanoma)
Outline: as §1

[4] = system: IST-MEL1 (Melanoma)
Outline: as §1

[5] = system: KP-4 (Pancreatic Carcinoma)
Outline: as §1

[6] = system: MONO-MAC-6 (Acute Myeloid Leukemia)
Outline: as §1

[7] = system: MS-1 (Small Cell Lung Carcinoma)
Outline: as §1

[8] = system: NAMALWA (Burkitt's Lymphoma)
Outline: as §1

[9] = system: NB1 (Neuroblastoma)
Outline: as §1

[10] = system: NCI-H1341 (Small Cell Lung Carcinoma)
Outline: as §1

[11] = system: NCI-H1876 (Small Cell Lung Carcinoma)
Outline: as §1

[12] = system: NCI-H2373 (Mesothelioma)
Outline: as §1

[13] = system: NCI-H3118 (Head and Neck Carcinoma)
Outline: as §1

[14] = system: NCI-H596 (Other Solid Carcinomas)
Outline: as §1

[15] = system: OAW-28 (Ovarian Carcinoma)
Outline: as §1

[16] = system: OVCAR-3 (Ovarian Carcinoma)
Outline: as §1

[17] = system: PL4 (Pancreatic Carcinoma)
Outline: as §1

[18] = system: Raji (Burkitt's Lymphoma)
Outline: as §1

[19] = system: SUP-M2 (T-Cell Non-Hodgkin's Lymphoma)
Outline: as §1

[20] = system: T84 (Colorectal Carcinoma)
Outline: as §1

Structure (SMILES)	Bliss excess [1]	Bliss excess [2]	Bliss excess [3]	Bliss excess [4]	Bliss excess [5]	Bliss excess [6]	Bliss excess [7]	Bliss excess [8]	Bliss excess [9]	Bliss excess [10]	Bliss excess [11]	Bliss excess [12]	Bliss excess [13]	Bliss excess [14]	Bliss excess [15]	Bliss excess [16]	Bliss excess [17]	Bliss excess [18]	Bliss excess [19]	Bliss excess [20]
Cc1c2c(nn1C)CSCc1cc(n(C)n1)CSc1cc(c3ccccc3c1)OCCCc1c(C(=O)O)n(C)c3c-2c(Cl)ccc13 [AZD5991] + CN(C)CCCOc1ccc(-c2ccc3ncc4c(c3c2)n(C2CCOCC2)c(=O)n4C)cn1 [AZD0156] (first compound max 1 µM, 7x7, partner max 1 µM)	0.0291	0.0229	0.0152	-0.0282	0.0187	-0.0433	-0.0347	-0.0079	-0.0522	0.0072	0.0541	-0.0069	0.0092	-0.0088	0.0335	0.0405	0.056	-0.0213	-0.0012	-0.0112
Cc1c2c(nn1C)CSCc1cc(n(C)n1)CSc1cc(c3ccccc3c1)OCCCc1c(C(=O)O)n(C)c3c-2c(Cl)ccc13 [AZD5991] + C[C@@H]1COCCN1C2=NC(=NC(=C2)C3(CC3)[S@](=N)(=O)C)C4=C5C=CNC5=NC=C4 [AZD6738] (first compound max 1 µM, 7x7, partner max 10 µM)	0.0312	-0.01	0.0034	-0.0344	0.0389	-0.02	-0.0205	-0.0012	0.0343	0.0751	0.0961	0.0293	0.0942	-0.0172	0.0799	0.0623	0.0606	0.055	0.0505	-0.0127
Cc1c2c(nn1C)CSCc1cc(n(C)n1)CSc1cc(c3ccccc3c1)OCCCc1c(C(=O)O)n(C)c3c-2c(Cl)ccc13 [AZD5991] + Cc1cc2ncnn2cc1Nc1ncc2c(n1)n(C1CCOCC1)c(=O)n2C [AZD7648] (first compound max 1 µM, 7x7, partner max 10 µM)	-0.0347	-0.0007	-0.021	-0.0048	-0.0261	0.016	-0.0158	-0.0286	-0.0197	0.0192	-0.0266	-0.015	-0.0707	0.0056	0.0125	-0.0311	-0.0395	0.0794	-0.0146	-0.0431
C[C@@H]1COCCN1c1cc(C2([S@](C)(=N)=O)CC2)nc(-c2ccnc3[nH]ccc23)n1 [AZD6738] + O=C(c1cc(Cc2n[nH]c(=O)c3ccccc23)ccc1F)N1CCN(C(=O)C2CC2)CC1 [Olaparib] (first compound max 10 µM, 7x7, partner max 10 µM)	0.0226	0.0231	0.0019	0.035	0.113	-0.0438	0.0056	-0.0187	-0.058	-0.0105	-0.005	0.0165	-0.0038	-0.0841	-0.0159	0.0782	-0.0408	-0.0204	0.0646	-0.027
Cc1cc2ncnn2cc1Nc1ncc2c(n1)n(C1CCOCC1)c(=O)n2C [AZD7648] + C=CCn1c(=O)c2cnc(Nc3ccc(N4CCN(C)CC4)cc3)nc2n1-c1cccc(C(C)(C)O)n1 [AZD1775] (first compound max 10 µM, partner max 1 µM)	0.0125	-0.0502	-0.0275	-0.011	0.0217	-0.0188	-0.0401	-0.0101	-0.0015	-0.0476	0.0508	-0.0322	-0.0219	-0.0342	-0.0066	-0.0355	0.0057	-0.0359	0.0377	-0.0288
Cc1cc2ncnn2cc1Nc1ncc2c(n1)n(C1CCOCC1)c(=O)n2C [AZD7648] + CCN(CCO)CCCOc1ccc2c(Nc3cc(CC(=O)Nc4cccc(F)c4)[nH]n3)ncnc2c1 [AZD2811] (first compound max 10 µM, 7x7, partner max 1 µM)	0.0106	-0.0052	-0.035	0.03	-0.0425	0.0123	0.0104	0.114	-0.0026	0.0568	-0.074	-0.034	0.0241	-0.0576	0.0284	0.0046	-0.0041	0.0312	-0.0267	0.0161
Cc1cc2ncnn2cc1Nc1ncc2c(n1)n(C1CCOCC1)c(=O)n2C [AZD7648] + CN(C)CCCOc1ccc(-c2ccc3ncc4c(c3c2)n(C2CCOCC2)c(=O)n4C)cn1 [AZD0156] (first compound max 10 µM, 7x7, partner max 1 µM)	-0.0139	-0.0034	0.0232	-0.0228	0.0228	-0.0869	0.0245	-0.0224	0.0084	0.0157	0.0523	-0.0077	0.0143	-0.002	-0.0115	0.0157	-0.0153	0.0416	0.0397	0.0332
Cc1cc2ncnn2cc1Nc1ncc2c(n1)n(C1CCOCC1)c(=O)n2C [AZD7648] + C[C@@H]1COCCN1C2=NC(=NC(=C2)C3(CC3)[S@](=N)(=O)C)C4=C5C=CNC5=NC=C4 [AZD6738] (first compound max 10 µM, 7x7, partner max 10 µM)	-0.0015	0.0044	0.0104	-0.0172	0.0727	-0.0147	-0.0266	-0.0089	0.0428	-0.0087	0.0004	-0.102	0.0555	-0.0318	0.033	0.0009	-0.0396	0.0011	0.0562	0.0189
Cc1cc2ncnn2cc1Nc1ncc2c(n1)n(C1CCOCC1)c(=O)n2C [AZD7648] + O=C(c1cc(Cc2n[nH]c(=O)c3ccccc23)ccc1F)N1CCN(C(=O)C2CC2)CC1 [Olaparib] (first compound max 10 µM, 7x7, partner max 10 µM)	0.0174	-0.0712	-0.0379	-0.0517	-0.0225	-0.0146	-0.0087	-0.0119	-0.0431	0.013	0.0216	0.0234	-0.0223	-0.0384	-0.0127	-0.0257	-0.0364	0.0011	0.0721	-0.0256
NC1(C(=O)N[C@@H](CCO)c2ccc(Cl)cc2)CCN(c2ncnc3[nH]ccc23)CC1 [Capivasertib] + CC(=O)c1c(C)c2cnc(Nc3ccc(N4CCNCC4)cn3)nc2n(C2CCCC2)c1=O [Palbociclib] (first compound max 10 µM, 7x7, partner max 10 µM)	0.0392	-0.0396	0.0095	-0.0106	0.029	0.0034	-0.0055	0.0053	-0.0201	-0.0345	-0.0263	-0.0016	0.0463	-0.0856	-0.0162	-0.0396	-0.0323	0.0521	0.0198	-0.0175
NC1(C(=O)N[C@@H](CCO)c2ccc(Cl)cc2)CCN(c2ncnc3[nH]ccc23)CC1 [Capivasertib] + CC(C)n1c(=O)n(C)c2cnc3cc(F)c(-c4ccc(OCCCN5CCCCC5)nc4)cc3c21 [AZD1390] (first compound max 10 µM, 7x7, partner max 0.3 µM)	-0.064	-0.0361	-0.0397	-0.0392	-0.0546	-0.0262	0.0169	0.0005	-0.0688	-0.0818	-0.0805	-0.051	-0.0572	-0.143	-0.0674	-0.0438	-0.0225	-0.0461	0.0202	-0.0417
NC1(C(=O)N[C@@H](CCO)c2ccc(Cl)cc2)CCN(c2ncnc3[nH]ccc23)CC1 [Capivasertib] + CCN(CCO)CCCOc1ccc2c(Nc3cc(CC(=O)Nc4cccc(F)c4)[nH]n3)ncnc2c1 [AZD2811] (first compound max 10 µM, 7x7, partner max 1 µM)	0.0122	-0.0545	-0.0181	-0.0347	-0.0379	0.0633	0.0059	0.0887	-0.0284	-0.0036	0.0781	-0.079	-0.0242	0.017	0.0262	0.0224	0.0317	0.0021	-0.0005	-0.104
NC1(C(=O)N[C@@H](CCO)c2ccc(Cl)cc2)CCN(c2ncnc3[nH]ccc23)CC1 [Capivasertib] + COc1nnc2ccc(N3CCC(c4ccc(OCCN5CCN(C)C(=O)[C@H]5C)cc4)CC3)nn12 [AZD5153] (first compound max 10 µM, 7x7, partner max 1 µM)	0.0039	-0.0336	-0.0323	-0.0143	-0.0109	-0.003	-0.0737	-0.0058	0.0085	0.0383	0.0774	0.0349	-0.0144	-0.0136	0.0387	0.0189	-0.0138	0.0469	-0.0322	-0.0695
